What all share (format): biochemical
In one test the target is T1, Lck (Homo sapiens, UniProt P06239).
T1 construct: Kinases are expressed as either kinase domains or full length constructs; made in house
The experiment in a line: Kinase inhibition assay (33P transfer), Lck. Particulars: Table 3, class symbols; read-out: Lck-1. The procedure, abridged: (§1)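 GST/His-tagged kinase (domain or full length; E. coli or baculovirus) + [33P]ATP on plates coated with poly(Glu,Tyr) 4:1 or poly(Arg,Ser) 3:1; incubate, wash 0.5% H3PO4, add scintillant, count.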

The target of a further test is T2, Zap-70 (Homo sapiens, UniProt P43403).
T2 construct: Kinases are expressed as either kinase domains or full length constructs; made in house
T2 sequence (P43403 1-619): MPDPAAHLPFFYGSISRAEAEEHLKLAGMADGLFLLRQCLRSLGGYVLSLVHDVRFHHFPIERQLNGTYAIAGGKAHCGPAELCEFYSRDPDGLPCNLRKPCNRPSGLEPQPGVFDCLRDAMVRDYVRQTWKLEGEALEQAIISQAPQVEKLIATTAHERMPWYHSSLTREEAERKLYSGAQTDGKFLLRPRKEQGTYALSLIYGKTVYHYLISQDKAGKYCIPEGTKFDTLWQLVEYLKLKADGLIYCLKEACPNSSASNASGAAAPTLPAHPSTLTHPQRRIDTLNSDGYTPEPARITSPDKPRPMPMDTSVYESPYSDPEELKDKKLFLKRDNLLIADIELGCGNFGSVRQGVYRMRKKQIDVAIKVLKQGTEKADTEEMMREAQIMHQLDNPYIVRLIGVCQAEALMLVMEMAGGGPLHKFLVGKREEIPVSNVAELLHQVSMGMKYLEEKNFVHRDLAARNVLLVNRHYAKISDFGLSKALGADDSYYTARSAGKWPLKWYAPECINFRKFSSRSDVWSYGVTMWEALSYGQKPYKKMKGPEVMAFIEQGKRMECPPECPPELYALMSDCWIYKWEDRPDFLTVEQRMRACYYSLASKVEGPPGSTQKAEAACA
The experiment in a line: Kinase inhibition assay (33P transfer), Zap-70. Particulars: Table 3, class symbols; read-out: Zap-1. The procedure, abridged:
as §1

Another test concerns the target T3, Itk (Homo sapiens, UniProt Q08881).
T3 construct: Kinases are expressed as either kinase domains or full length constructs; made in house
T3 sequence (Q08881 1-620): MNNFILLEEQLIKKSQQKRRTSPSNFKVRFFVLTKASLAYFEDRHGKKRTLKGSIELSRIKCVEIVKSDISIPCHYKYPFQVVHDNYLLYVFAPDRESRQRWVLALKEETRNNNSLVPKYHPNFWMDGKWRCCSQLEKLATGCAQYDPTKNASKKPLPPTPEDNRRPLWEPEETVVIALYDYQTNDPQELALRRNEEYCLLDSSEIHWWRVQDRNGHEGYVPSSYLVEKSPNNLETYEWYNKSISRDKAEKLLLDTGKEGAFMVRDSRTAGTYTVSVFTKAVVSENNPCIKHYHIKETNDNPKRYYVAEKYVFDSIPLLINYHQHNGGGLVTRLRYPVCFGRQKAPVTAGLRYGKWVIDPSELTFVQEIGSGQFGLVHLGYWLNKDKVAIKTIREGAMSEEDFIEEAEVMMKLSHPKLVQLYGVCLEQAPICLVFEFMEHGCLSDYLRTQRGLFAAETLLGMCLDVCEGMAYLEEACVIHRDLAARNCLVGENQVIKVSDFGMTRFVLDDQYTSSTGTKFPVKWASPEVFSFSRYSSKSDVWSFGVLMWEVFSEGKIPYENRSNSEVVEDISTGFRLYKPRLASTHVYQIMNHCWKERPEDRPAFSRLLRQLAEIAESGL
The experiment in a line: Kinase inhibition assay (33P transfer), Itk. Particulars: Table 3, class symbols; read-out: Itk-1. Summed up:
(§2)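 Radiometric format: recombinant tagged kinase (catalytic domain or whole protein, sometimes combined with regulatory polypeptides) phosphorylates immobilised poly(Glu,Tyr) 4:1 or poly(Arg,Ser) 3:1 using [33P]ATP. Wells are washed in 0.5% phosphoric acid, then counted. IC50 is taken where substrate labelling falls by half.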

For a further test, the target named is T4, EGFR (Homo sapiens, UniProt P00533).
T4 construct: Kinases are expressed as either kinase domains or full length constructs; made in house
The experiment in a line: Kinase inhibition assay (33P transfer), EGFR. Particulars: Table 2, class symbols A-E; read-out: EGFR-1. The procedure, abridged:
as §2

In a further test the target is T5, ErbB2 (Homo sapiens, UniProt P04626).
T5 construct: Kinases are expressed as either kinase domains or full length constructs; made in house
T5 sequence (P04626 23-1255, species assumed): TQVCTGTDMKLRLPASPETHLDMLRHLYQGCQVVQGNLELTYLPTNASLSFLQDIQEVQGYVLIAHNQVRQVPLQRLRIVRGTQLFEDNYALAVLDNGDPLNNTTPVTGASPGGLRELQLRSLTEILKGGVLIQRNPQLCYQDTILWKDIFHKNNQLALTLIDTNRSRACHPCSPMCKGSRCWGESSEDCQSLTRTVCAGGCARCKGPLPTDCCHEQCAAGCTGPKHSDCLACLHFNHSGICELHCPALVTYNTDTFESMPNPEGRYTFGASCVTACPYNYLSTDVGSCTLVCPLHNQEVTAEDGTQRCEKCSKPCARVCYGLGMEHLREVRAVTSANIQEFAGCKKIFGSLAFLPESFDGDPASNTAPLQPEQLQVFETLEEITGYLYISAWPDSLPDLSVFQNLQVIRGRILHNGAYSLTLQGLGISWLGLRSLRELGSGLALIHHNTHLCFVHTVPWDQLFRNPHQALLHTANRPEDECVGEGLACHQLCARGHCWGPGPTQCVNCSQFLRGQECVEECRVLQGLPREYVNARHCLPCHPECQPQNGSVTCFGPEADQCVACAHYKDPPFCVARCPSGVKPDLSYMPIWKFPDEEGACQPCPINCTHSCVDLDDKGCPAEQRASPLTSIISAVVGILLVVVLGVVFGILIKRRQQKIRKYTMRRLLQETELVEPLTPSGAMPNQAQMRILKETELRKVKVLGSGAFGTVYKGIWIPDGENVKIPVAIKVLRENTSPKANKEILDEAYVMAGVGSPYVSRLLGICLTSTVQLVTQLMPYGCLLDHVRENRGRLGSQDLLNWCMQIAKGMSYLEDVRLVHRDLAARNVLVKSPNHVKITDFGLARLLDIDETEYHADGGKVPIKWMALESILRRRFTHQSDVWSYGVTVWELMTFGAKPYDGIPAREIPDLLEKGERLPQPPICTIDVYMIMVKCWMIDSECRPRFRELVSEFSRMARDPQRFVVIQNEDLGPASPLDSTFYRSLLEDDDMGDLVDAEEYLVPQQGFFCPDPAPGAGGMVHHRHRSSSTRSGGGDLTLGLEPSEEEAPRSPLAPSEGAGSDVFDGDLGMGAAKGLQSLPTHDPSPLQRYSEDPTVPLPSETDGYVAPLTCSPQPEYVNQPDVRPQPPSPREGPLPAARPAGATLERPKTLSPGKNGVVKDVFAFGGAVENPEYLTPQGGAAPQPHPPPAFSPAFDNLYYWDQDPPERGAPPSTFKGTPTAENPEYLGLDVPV
The experiment in a line: Kinase inhibition assay (33P transfer), ErbB2. The settings on record: read-out: ErbB2-2. Summed up:
as §2

For another test, the target named is T6, Kdr (Homo sapiens, UniProt P35968).
T6 construct: Kinases are expressed as either kinase domains or full length constructs; made in house
T6 sequence (P35968 20-1356, species assumed): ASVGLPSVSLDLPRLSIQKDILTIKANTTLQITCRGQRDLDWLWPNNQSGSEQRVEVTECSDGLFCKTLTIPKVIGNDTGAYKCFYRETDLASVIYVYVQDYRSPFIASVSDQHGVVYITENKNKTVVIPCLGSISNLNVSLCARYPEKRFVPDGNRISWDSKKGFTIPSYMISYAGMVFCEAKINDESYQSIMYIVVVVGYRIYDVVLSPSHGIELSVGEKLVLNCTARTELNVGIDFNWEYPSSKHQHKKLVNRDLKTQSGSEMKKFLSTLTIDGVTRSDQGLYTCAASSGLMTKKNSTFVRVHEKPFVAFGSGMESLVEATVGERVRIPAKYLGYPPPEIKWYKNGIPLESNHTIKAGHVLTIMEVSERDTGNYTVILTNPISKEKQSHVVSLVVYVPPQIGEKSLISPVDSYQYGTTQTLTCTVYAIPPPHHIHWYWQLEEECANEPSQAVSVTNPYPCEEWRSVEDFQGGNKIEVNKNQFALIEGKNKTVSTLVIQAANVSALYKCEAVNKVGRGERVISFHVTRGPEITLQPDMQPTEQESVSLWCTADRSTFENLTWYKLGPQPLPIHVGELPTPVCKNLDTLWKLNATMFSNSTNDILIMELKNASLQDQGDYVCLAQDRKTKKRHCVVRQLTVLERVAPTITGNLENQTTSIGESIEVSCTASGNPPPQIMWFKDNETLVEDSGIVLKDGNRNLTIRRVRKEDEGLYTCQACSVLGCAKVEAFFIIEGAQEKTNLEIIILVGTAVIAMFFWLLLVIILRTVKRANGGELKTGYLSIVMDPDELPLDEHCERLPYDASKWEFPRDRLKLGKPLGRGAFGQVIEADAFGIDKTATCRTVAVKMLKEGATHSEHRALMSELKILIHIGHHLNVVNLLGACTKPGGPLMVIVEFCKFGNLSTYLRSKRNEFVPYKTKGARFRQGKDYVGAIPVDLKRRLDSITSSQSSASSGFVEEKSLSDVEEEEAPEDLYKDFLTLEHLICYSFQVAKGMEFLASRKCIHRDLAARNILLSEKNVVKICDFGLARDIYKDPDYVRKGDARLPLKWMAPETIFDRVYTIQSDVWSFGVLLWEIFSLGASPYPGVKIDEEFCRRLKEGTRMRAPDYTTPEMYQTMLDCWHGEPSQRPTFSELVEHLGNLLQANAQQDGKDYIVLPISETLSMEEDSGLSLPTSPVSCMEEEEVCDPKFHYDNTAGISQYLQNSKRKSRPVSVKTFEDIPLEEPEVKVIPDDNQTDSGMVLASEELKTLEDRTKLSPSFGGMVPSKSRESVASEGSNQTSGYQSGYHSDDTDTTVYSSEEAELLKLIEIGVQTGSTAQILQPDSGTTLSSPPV
The experiment in a line: Kinase inhibition assay (33P transfer), Kdr. Particulars: Table 3, class symbols; read-out: KDR-1. Summed up: as §1

The next test concerns the target T7, c-Met (Homo sapiens, UniProt P08581).
T7 construct: Kinases are expressed as either kinase domains or full length constructs; made in house
The experiment in a line: Kinase inhibition assay (33P transfer), c-Met. The settings on record: Table 2, class symbols A-E; read-out: Met-1. Summed up: as §2

The next test addresses T8, AKT (Homo sapiens, UniProt Q9Y243).
T8 construct: Kinases are expressed as either kinase domains or full length constructs; made in house
The experiment in a line: Kinase inhibition assay (33P transfer), AKT. Particulars: Table 2, class symbols A-E; read-out: AKT3-1. Summed up: as §1

A further test has as its target T9, IGFR-1 (Homo sapiens, UniProt P08069).
T9 construct: Kinases are expressed as either kinase domains or full length constructs; made in house
The experiment in a line: Kinase inhibition assay (33P transfer), IGFR-1. The settings on record: Table 2, class symbols A-E.

The target of another test is T10, PDGFRB (Homo sapiens, UniProt P09619).
T10 construct: Kinases are expressed as either kinase domains or full length constructs; made in house
The experiment in a line: Kinase inhibition assay (33P transfer), PDGFRB. The settings on record: read-out: PDGFRB-1.

T1 sequence (P06239 whole entry, species assumed, the tested form may be a part): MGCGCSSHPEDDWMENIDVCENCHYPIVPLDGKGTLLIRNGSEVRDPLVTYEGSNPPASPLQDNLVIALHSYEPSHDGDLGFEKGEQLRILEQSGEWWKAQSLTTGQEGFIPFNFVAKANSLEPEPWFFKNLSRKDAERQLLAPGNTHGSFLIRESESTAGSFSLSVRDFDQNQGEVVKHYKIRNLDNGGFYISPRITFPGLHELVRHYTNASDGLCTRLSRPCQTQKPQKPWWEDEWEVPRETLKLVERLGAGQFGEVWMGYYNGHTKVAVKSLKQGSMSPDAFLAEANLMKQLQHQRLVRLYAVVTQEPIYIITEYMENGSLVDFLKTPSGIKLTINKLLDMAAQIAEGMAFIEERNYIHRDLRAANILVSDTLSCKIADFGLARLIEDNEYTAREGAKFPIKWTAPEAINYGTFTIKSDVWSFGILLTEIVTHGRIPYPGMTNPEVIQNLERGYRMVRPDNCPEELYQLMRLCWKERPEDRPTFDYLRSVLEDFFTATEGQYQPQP
T8 sequence (Q9Y243 whole entry, the tested form may be a part): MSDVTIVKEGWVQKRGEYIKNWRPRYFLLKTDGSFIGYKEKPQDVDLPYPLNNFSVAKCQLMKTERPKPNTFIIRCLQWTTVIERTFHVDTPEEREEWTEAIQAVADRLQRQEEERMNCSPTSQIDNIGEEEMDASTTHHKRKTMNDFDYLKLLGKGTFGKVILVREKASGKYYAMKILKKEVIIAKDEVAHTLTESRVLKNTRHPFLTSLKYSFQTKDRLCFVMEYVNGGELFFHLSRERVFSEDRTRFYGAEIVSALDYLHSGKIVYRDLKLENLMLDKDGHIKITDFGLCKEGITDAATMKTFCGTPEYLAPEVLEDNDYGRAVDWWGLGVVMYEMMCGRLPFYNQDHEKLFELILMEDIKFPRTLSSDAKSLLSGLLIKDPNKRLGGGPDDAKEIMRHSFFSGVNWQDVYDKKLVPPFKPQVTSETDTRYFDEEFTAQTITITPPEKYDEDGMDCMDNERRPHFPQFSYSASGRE
T7 sequence (P08581 25-1390): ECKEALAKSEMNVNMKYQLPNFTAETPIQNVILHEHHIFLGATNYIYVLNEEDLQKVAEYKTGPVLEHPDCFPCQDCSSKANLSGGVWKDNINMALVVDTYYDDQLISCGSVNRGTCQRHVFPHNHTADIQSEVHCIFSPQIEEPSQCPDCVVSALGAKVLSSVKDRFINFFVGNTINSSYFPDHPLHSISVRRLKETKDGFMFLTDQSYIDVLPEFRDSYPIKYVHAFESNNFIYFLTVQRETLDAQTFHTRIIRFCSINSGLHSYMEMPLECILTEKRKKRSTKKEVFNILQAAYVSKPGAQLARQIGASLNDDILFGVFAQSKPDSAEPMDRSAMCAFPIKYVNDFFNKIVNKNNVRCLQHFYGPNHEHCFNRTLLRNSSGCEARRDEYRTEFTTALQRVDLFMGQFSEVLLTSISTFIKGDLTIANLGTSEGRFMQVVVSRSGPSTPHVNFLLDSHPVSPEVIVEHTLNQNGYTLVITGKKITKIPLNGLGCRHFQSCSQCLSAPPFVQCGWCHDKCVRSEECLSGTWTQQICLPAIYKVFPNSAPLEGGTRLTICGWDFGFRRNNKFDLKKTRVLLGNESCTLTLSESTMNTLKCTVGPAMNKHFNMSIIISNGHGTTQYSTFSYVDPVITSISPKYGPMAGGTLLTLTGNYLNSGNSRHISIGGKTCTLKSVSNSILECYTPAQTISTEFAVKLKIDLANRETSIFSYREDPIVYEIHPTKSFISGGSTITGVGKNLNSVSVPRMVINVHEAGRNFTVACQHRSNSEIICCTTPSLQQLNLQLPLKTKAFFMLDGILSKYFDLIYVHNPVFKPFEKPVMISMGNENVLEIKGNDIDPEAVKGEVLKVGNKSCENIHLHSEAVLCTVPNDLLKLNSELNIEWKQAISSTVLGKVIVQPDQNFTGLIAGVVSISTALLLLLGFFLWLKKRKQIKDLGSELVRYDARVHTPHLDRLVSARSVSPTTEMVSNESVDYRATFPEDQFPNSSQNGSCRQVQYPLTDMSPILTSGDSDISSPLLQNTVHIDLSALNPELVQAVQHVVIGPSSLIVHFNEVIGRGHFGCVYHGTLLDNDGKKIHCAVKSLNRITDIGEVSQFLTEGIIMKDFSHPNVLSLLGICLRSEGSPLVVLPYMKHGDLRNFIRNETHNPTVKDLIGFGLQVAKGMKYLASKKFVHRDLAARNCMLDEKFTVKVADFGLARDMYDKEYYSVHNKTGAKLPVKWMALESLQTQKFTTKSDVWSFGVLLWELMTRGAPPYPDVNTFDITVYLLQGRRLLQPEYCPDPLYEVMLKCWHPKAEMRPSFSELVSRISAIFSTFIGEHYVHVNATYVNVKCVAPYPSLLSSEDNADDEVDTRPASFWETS

For the molecule `c1coc(-c2cc(Nc3ncnc(Nc4ccc(-c5csnn5)cc4)n3)n[nH]2)c1` [Compound 891], the IC50 on Lck was 5.95 to 8.68 µM; at Zap-70 it was 0.991 to 5.95 µM; on Itk, 0.991 to 5.95 µM; at EGFR, 0.991 to 5.95 µM; on ErbB2, below 0.991 µM; on Kdr, below 0.991 µM. Also, the IC50 was below 0.991 µM on c-Met, 0.991 to 5.95 µM at AKT, below 0.991 µM on IGFR-1 and below 0.991 µM on PDGFRB.

Consider `COC(=O)c1ccc(-c2cc(Nc3ncnc(NCCN4CCNC4=O)n3)[nH]n2)cc1` [Compound 820], for which the IC50 was above 10.6 µM on Lck; above 10.6 µM at Zap-70; 8.27 to 10.6 µM at Itk; above 10.6 µM at EGFR; above 10.6 µM at ErbB2; above 10.6 µM at Kdr. Besides, the IC50 was above 10.6 µM at c-Met, above 10.6 µM at AKT, 8.27 to 10.6 µM against IGFR-1 and above 10.6 µM at PDGFRB.

Take `CCN(c1cccc(Cl)c1)c1ncnc(Nc2cc(OC)cc(OC)c2)n1` [Compound 724]: the IC50 at Lck is 1.04 to 6.22 µM; at Zap-70 it was above 11.7 µM; at Itk, 1.04 to 6.22 µM; on EGFR, below 1.04 µM; on ErbB2, 1.04 to 6.22 µM; at Kdr it was 1.04 to 6.22 µM. Besides, the IC50 was 1.04 to 6.22 µM on c-Met, above 11.7 µM at AKT, 1.04 to 6.22 µM against IGFR-1 and 1.04 to 6.22 µM on PDGFRB.

Turning to `CN(c1ccc(Cl)c(Cl)c1)c1ncnc(Nc2ccc3c(cnn3Cc3ccccc3)c2)n1` [Compound 903], the IC50 at Lck was above 9.45 µM; on Zap-70, above 9.45 µM; on Itk it was above 9.45 µM; at EGFR it was below 0.84 µM; at ErbB2, 5.04 to 7.35 µM; on Kdr, above 9.45 µM. The IC50 is 5.04 to 7.35 µM at c-Met, above 9.45 µM at AKT, above 9.45 µM against IGFR-1 and 5.04 to 7.35 µM on PDGFRB.

As to `CNS(=O)(=O)Cc1ccc(Nc2ncnc(Nc3cc(-c4ccc(C(=O)OC)cc4)n[nH]3)n2)cc1` [Compound 883], the IC50 was above 9.1 µM on Lck; above 9.1 µM on Zap-70; above 9.1 µM at Itk; 4.85 to 7.08 µM at EGFR; above 9.1 µM at ErbB2; above 9.1 µM on Kdr. Moreover, the IC50 at c-Met was below 0.809 µM; at AKT it was above 9.1 µM; against IGFR-1, 4.85 to 7.08 µM; at PDGFRB it was 4.85 to 7.08 µM.

For `O=S(=O)(O)c1cccc(Nc2ncnc(Nc3cc(-c4ccco4)[nH]n3)n2)c1` [Compound 825], the IC50 on Lck was 8.76 to 11.3 µM; on Zap-70 it was 6.01 to 8.76 µM; on Itk, 1 to 6.01 µM; at EGFR, below 1 µM; on ErbB2 it was 1 to 6.01 µM; on Kdr, below 1 µM. In addition, the IC50 on c-Met, on AKT, against IGFR-1 and at PDGFRB was 1 to 6.01 µM each time.

In the case of `Cc1nccc(-c2cccc(Nc3ncnc(Nc4ccc5c(cnn5Cc5ccccc5)c4)n3)c2)n1` [Compound 901], the IC50 at Lck is 0.824 to 4.94 µM; at Zap-70, above 9.27 µM; on Itk it was 0.824 to 4.94 µM; at EGFR it was below 0.824 µM; on ErbB2, 0.824 to 4.94 µM; on Kdr, 0.824 to 4.94 µM. The IC50 is 0.824 to 4.94 µM at c-Met, 0.824 to 4.94 µM at AKT, above 9.27 µM against IGFR-1 and below 0.824 µM on PDGFRB.

For the origin of these results see US7074789B2, “Kinase inhibitors” (Amgen Inc., priority 1999, dated 2006).
